# From patent US9023847B2, “Azaheterocyclic compounds” (Merck Patent GmbH, priority 2009, dated 2015)
# Molecular target: T1, P70S6K (T412E mutant, Millipore) (Homo sapiens, UniProt P23443, T412E)
# T1 construct: purchased Millipore
# Assay: p70S6K enzyme assay
# Assay type: biochemical
# Settings: class symbol; 3 nM P70S6K, 24 μM ATP; read-out: IC50 (p70S6K)
# Description: P70S6K inhibitor compounds are diluted and plated in 96 well plates. A reaction mixture including the following components is then added to the compound plate to initiate the enzyme reaction; P70S6K (3 nM, T412E mutant, Millipore) is mixed with 24 μM ATP in an assay buffer containing 100 mM Hepes (pH 7.5), 5 mM MgCl2, 1 mM DTT, 0.015% Brij and 1 μM of the substrate peptide FITC-AHA-AKRRRLSSLRA-OH (derived from the S6 ribosomal protein sequence, FITC=fluorescein isothiocyanate, AHA=6-aminohexanoic acid). The reaction is incubated for 90 min at 25° C., before the addition of 10 mM EDTA to stop the reaction. The proportion of substrate and product (phosphorylated) peptide is analysed on a Caliper Life Sciences Lab Chip 3000, using a pressure of −1.4 psi, and upstream and downstream voltages of −3000 and −700 respectively. Product peaks are resolved before substrate peaks on the resulting chromatograms.
# T1 sequence (P23443 whole entry T412E): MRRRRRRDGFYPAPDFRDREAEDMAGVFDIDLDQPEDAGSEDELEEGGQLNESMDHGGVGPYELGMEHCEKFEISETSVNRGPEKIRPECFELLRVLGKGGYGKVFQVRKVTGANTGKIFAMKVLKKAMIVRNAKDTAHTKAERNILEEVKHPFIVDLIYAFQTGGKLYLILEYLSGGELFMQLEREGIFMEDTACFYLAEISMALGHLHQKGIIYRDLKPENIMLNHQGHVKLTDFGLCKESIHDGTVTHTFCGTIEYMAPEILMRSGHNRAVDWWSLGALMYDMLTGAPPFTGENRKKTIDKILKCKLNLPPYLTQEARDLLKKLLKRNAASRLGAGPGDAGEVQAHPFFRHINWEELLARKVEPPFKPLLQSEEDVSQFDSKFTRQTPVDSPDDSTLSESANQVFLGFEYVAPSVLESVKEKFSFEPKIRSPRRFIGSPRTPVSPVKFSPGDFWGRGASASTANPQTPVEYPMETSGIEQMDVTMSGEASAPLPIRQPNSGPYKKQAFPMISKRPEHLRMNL
row,Compound,IC50
1,"O=C(Nc1ccc(Cl)cc1)c1sccc1Nc1ccnc2[nH]ccc12 [Example 35, 3-(1H-Pyrrolo[2,3-b]pyridin-4-ylamino)-thiophene-2-carboxylic acid (4-chloro-phenyl)-amide]",< 0.1 µM
2,"COc1ccc(NC(=O)c2sccc2Nc2ccnc3[nH]ccc23)cc1 [Example 36, 3-(1H-Pyrrolo[2,3-b]pyridin-4-ylamino)-thiophene-2-carboxylic acid (4-methoxy-phenyl)-amide]",< 0.1 µM
3,"O=C(Nc1ccc(F)cc1)c1sccc1Nc1ccnc2[nH]ccc12 [Example 37, 3-(1H-Pyrrolo[2,3-b]pyridin-4-ylamino)-thiophene-2-carboxylic acid (4-fluoro-phenyl)-amide]",< 0.1 µM
4,"COc1cccc(NC(=O)c2sccc2Nc2ccnc3[nH]ccc23)c1 [Example 39, 3-(1H-Pyrrolo[2,3-b]pyridin-4-ylamino)-thiophene-2-carboxylic acid (3-methoxy-phenyl)-amide]",0.1 to 1 µM
5,"COc1ccc(CNCCNC(=O)c2sccc2Nc2ccnc3[nH]ccc23)cc1 [Example 40, 3-(1H-Pyrrolo[2,3-b]pyridin-4-ylamino)-thiophene-2-carboxylic acid [2-(4-methoxy-benzylamino)-ethyl]-amide]",< 0.1 µM
6,"O=C(NCCNCc1ccccn1)c1sccc1Nc1ccnc2[nH]ccc12 [Example 41, 3-(1H-Pyrrolo[2,3-b]pyridin-4-ylamino)-thiophene-2-carboxylic acid {2-[(pyridin-2-ylmethyl)-amino]-ethyl}-amide]",< 0.1 µM
7,"NCCNC(=O)c1sccc1Nc1ccnc2[nH]ccc12 [Example 42, 3-(1H-Pyrrolo[2,3-b]pyridin-4-ylamino)-thiophene-2-carboxylic acid (2-amino-ethyl)-amide]",< 0.1 µM
8,"O=C(N[C@@H](CO)c1ccccc1)c1sccc1Nc1ccnc2[nH]ccc12 [Example 43, R-[3-(1H-Pyrrolo[2,3-b]pyridin-4-ylamino)-thiophene-2-carboxylic acid (2-hydroxy-1-phenyl-ethyl)-amide]]",1 to 10 µM
9,"O=C(N[C@H](CO)c1ccccc1)c1sccc1Nc1ccnc2[nH]ccc12 [Example 44, S-[3-(1H-Pyrrolo[2,3-b]pyridin-4-ylamino)-thiophene-2-carboxylic acid (2-hydroxy-1-phenyl-ethyl)-amide]]",< 0.1 µM
10,"CC(=O)N(CCNC(=O)c1sccc1Nc1ccnc2[nH]ccc12)Cc1ccccc1 [Example 45, 3-(1H-Pyrrolo[2,3-b]pyridin-4-ylamino)-thiophene-2-carboxylic acid [2-(acetyl-benzyl-amino)-ethyl]-amide]",0.1 to 1 µM
11,"O=C(NCCNCc1ccsc1)c1sccc1Nc1ccnc2[nH]ccc12 [Example 46, 3-(1H-Pyrrolo[2,3-b]pyridin-4-ylamino)-thiophene-2-carboxylic acid {2-[(thiophen-3-ylmethyl)-amino]-ethyl}-amide]",< 0.1 µM
12,"O=C(NCCN(Cc1ccoc1)Cc1ccoc1)c1sccc1Nc1ccnc2[nH]ccc12 [Example 47, 3-(1H-Pyrrolo[2,3-b]pyridin-4-ylamino)-thiophene-2-carboxylic acid [2-(bis-furan-3-ylmethyl-amino)-ethyl]-amide]",< 0.1 µM
13,"O=C(NCCNCc1ccccc1OC(F)(F)F)c1sccc1Nc1ccnc2[nH]ccc12 [Example 48, 3-(1H-Pyrrolo[2,3-b]pyridin-4-ylamino)-thiophene-2-carboxylic acid [2-(2-trifluoromethoxy-benzylamino)-ethyl]amide]",< 0.1 µM
14,"COc1cccc(CNCCNC(=O)c2sccc2Nc2ccnc3[nH]ccc23)c1 [Example 49, 3-(1H-Pyrrolo[2,3-b]pyridin-4-ylamino)-thiophene-2-carboxylic acid [2-(3-methoxy-benzylamino)-ethyl]-amide]",< 0.1 µM
15,"O=C(NCCNCc1cccc(OC(F)(F)F)c1)c1sccc1Nc1ccnc2[nH]ccc12 [Example 50, 3-(1H-Pyrrolo[2,3-b]pyridin-4-ylamino)-thiophene-2-carboxylic acid [2-(3-trifluoromethoxy-benzylamino)-ethyl]-amide]",< 0.1 µM
16,"O=C(NCCNCc1ccc(OC(F)(F)F)cc1)c1sccc1Nc1ccnc2[nH]ccc12 [Example 51, 3-(1H-Pyrrolo[2,3-b]pyridin-4-ylamino)-thiophene-2-carboxylic acid [2-(4-trifluoromethoxy-benzylamino)-ethyl]-amide]",< 0.1 µM
17,"O=C(NCCNCc1ccc(C(F)(F)F)cc1)c1sccc1Nc1ccnc2[nH]ccc12 [Example 52, 3-(1H-Pyrrolo[2,3-b]pyridin-4-ylamino)-thiophene-2-carboxylic acid [2-(4-trifluoromethyl-benzylamino)-ethyl]-amide]",< 0.1 µM
18,"O=C(NCCNCc1ccoc1)c1sccc1Nc1ccnc2[nH]ccc12 [Example 53, 3-(1H-Pyrrolo[2,3-b]pyridin-4-ylamino)-thiophene-2-carboxylic acid {2-[(furan-3-ylmethyl)-amino]-ethyl}-amide]",< 0.1 µM

row,Compound,IC50
1,"Cc1cccc(CN(CCNC(=O)c2sccc2Nc2ccnc3[nH]ccc23)Cc2cccc(C)c2)c1 [Example 55, 3-(1H-Pyrrolo[2,3-b]pyridin-4-ylamino)-thiophene-2-carboxylic acid {2-[bis-(3-methyl-benzyl)-amino]-ethyl}-amide]",0.1 to 1 µM
2,"Cc1cccc(CNCCNC(=O)c2sccc2Nc2ccnc3[nH]ccc23)c1 [Example 56, 3-(1H-Pyrrolo[2,3-b]pyridin-4-ylamino)-thiophene-2-carboxylic acid [2-(3-methyl-benzylamino)-ethyl]-amide]",< 0.1 µM
3,"O=C(NCCNCc1ccccc1F)c1sccc1Nc1ccnc2[nH]ccc12 [Example 58, 3-(1H-Pyrrolo[2,3-b]pyridin-4-ylamino)-thiophene-2-carboxylic acid [2-(2-fluoro-benzylamino)-ethyl]-amide]",< 0.1 µM
4,"O=C(NCCNCc1ccc2[nH]ccc2c1)c1sccc1Nc1ccnc2[nH]ccc12 [Example 59, 3-(1H-Pyrrolo[2,3-b]pyridin-4-ylamino)-thiophene-2-carboxylic acid {2-[(1H-indol-5-ylmethyl)-amino]-ethyl}-amide]",< 0.1 µM
5,"COc1ccccc1CNCCNC(=O)c1sccc1Nc1ccnc2[nH]ccc12 [Example 60, 3-(1H-Pyrrolo[2,3-b]pyridin-4-ylamino)-thiophene-2-carboxylic acid [2-(2-methoxy-benzylamino)-ethyl]-amide]",< 0.1 µM
6,"O=C(NCCNCc1cccnc1)c1sccc1Nc1ccnc2[nH]ccc12 [Example 61, 3-(1H-Pyrrolo[2,3-b]pyridin-4-ylamino)-thiophene-2-carboxylic acid {2-[(pyridin-3-ylmethyl)-amino]-ethyl}-amide]",0.1 to 1 µM
7,"O=C(NCCNCc1ccc(F)cc1)c1sccc1Nc1ccnc2[nH]ccc12 [Example 62, 3-(1H-Pyrrolo[2,3-b]pyridin-4-ylamino)-thiophene-2-carboxylic acid [2-(4-fluoro-benzylamino)-ethyl]-amide]",< 0.1 µM
8,"O=C(NCCNCc1ccc(F)c(Cl)c1)c1sccc1Nc1ccnc2[nH]ccc12 [Example 63, 3-(1H-Pyrrolo[2,3-b]pyridin-4-ylamino)-thiophene-2-carboxylic acid [2-(3-chloro-4-fluoro-benzylamino)-ethyl]-amide]",< 0.1 µM
9,"NC1CCN(C(=O)c2sccc2Nc2ccnc3[nH]ccc23)CC1 [Example 64, (4-Amino-piperidin-1-yl)-[3-(1H-pyrrolo[2,3-b]pyridin-4-ylamino)-thiophen-2-yl]-methanone]",1 to 10 µM
10,"O=C(c1sccc1Nc1ccnc2[nH]ccc12)N1CCC(NCc2ccccc2)CC1 [Example 65, (4-Benzylamino-piperidin-1-yl)-[3-(1H-pyrrolo[2,3-b]pyridin-4-ylamino)-thiophen-2-yl]-methanone]",1 to 10 µM
11,"O=C(NCCSCc1ccccc1)c1sccc1Nc1ccnc2[nH]ccc12 [Example 66, 3-(1H-Pyrrolo[2,3-b]pyridin-4-ylamino)-thiophene-2-carboxylic acid (2-benzylsulfanyl-ethyl)-amide]",0.1 to 1 µM
12,"NCCCNC(=O)c1sccc1Nc1ccnc2[nH]ccc12 [Example 67, 3-(1H-Pyrrolo[2,3-b]pyridin-4-ylamino)-thiophene-2-carboxylic acid (3-amino-propyl)-amide]",0.1 to 1 µM
13,"O=C(NCCOCc1ccccc1)c1sccc1Nc1ccnc2[nH]ccc12 [Example 68, 3-(1H-Pyrrolo[2,3-b]pyridin-4-ylamino)-thiophene-2-carboxylic acid (2-benzyloxy-ethyl)-amide]",< 0.1 µM
14,"O=C(NCCS(=O)(=O)Cc1ccccc1)c1sccc1Nc1ccnc2[nH]ccc12 [Example 69, 3-(1H-Pyrrolo[2,3-b]pyridin-4-ylamino)-thiophene-2-carboxylic acid (2-phenylmethanesulfonyl-ethyl)-amide]",0.1 to 1 µM
15,"O=C(NCCNC(=O)c1sccc1Nc1ccnc2[nH]ccc12)c1ccccc1 [Example 70, 3-(1H-Pyrrolo[2,3-b]pyridin-4-ylamino)-thiophene-2-carboxylic acid (2-benzoylamino-ethyl)-amide]",< 0.1 µM
16,"O=C(NCCNS(=O)(=O)c1ccccc1)c1sccc1Nc1ccnc2[nH]ccc12 [Example 71, 3-(1H-Pyrrolo[2,3-b]pyridin-4-ylamino)-thiophene-2-carboxylic acid (2-benzenesulfonylamino-ethyl)-amide]",0.1 to 1 µM
17,"O=C(NCCNCc1ccccc1)c1ccsc1Nc1ccnc2[nH]ccc12 [Example 72, 2-(1H-Pyrrolo[2,3-b]pyridin-4-ylamino)-thiophene-3-carboxylic acid (2-benzylamino-ethyl)-amide]",< 0.1 µM
